In patent US20100092560A1, “REDUCED COENZYME Q10-CONTAINING PARTICULATE COMPOSITION AND METHOD FOR PRODUCING THE SAME” (KANEKA CORPORATION, priority 2007, published 2010):

Assay: Preservation test: residual ratio of reduced coenzyme Q10 (oxidative stability, HPLC)
Assay type: physicochemical
Settings: powder preserved for 30 days at 40° C. under shading conditions
Description: The purity of reduced coenzyme Q10, the weight ratio (%) of oxidized coenzyme Q10 and reduced coenzyme Q10 and the like were determined by the following HPLC analysis. The HPLC analysis conditions are described below.
column: SYMMETRY C18 (manufactured by Waters) 250 mm (length) 4.6 mm (inner diameter), mobile phase; C2H5OH/CH3OH=4/3(v/v), detection wavelength; 210 nm, flow rate; 1.0 ml/min, retention time of reduced coenzyme Q10; 9.1 min, retention time of oxidized coenzyme Q10; 13.3 min.

COc1c(O)c(C)c(C/C=C(\C)CC/C=C(\C)CC/C=C(\C)CC/C=C(\C)CC/C=C(\C)CC/C=C(\C)CC/C=C(\C)CC/C=C(\C)CC/C=C(\C)CCC=C(C)C)c(O)c1OC [reduced coenzyme Q10 powder, reduced coenzyme Q10]
residual ratio of reduced coenzyme Q10: 28%
